From patent publication US20240082238A1, “COMPOSITIONS AND METHODS FOR TREATING CANCER” (UNIVERSITY OF IOWA RESEARCH FOUNDATION, priority 2021, published 2024)

Columns and labels:
[1] = test system: caspase 3; test: Caspase multiplex activity assay, caspase 3; type: cell-based, human; details: 72 h; PTX 5, 10 nM; CIP2b 10, 25, 50 μM
Method: Apoptosis and caspase activity. The expression of caspase 3, 8, and 9 was measured using Multiplex Activity Assay Fluorometric Kit (Cat. No. ab219915, Abcam). Briefly, Hec50co cells were plated in 96-well plates at a density of 3000 per well in 100 μL of the complete medium and incubated for 24 hours. After incubation, the medium was removed, and different concentrations either in single or combination of treatments were added (PTX 5 and 10 nM; CIP2b 10, 25, and 50 μM). Cells with treatments were incubated for 24 or 72 hours. Then, the caspase kit reagents were added to the cells and incubated at room temperature for 60 minutes. Fluorescence intensity (at excitation/emission values of 535/620 nm, 490/525 nm, and 370/450 nm for caspase 3, 8, and 9, respectively) was then measured using a SpectraMax M5 microplate reader (Molecular Devices).

[2] = target: T1, human Topo I (Homo sapiens, UniProt P11387); test: Topoisomerase I inhibition assay (plasmid-based); type: biochemical; details: drug final concentration 100 μM
T1 construct: purchased TopoGEN Inc. TG1015-1A
T1 sequence (P11387 1-765): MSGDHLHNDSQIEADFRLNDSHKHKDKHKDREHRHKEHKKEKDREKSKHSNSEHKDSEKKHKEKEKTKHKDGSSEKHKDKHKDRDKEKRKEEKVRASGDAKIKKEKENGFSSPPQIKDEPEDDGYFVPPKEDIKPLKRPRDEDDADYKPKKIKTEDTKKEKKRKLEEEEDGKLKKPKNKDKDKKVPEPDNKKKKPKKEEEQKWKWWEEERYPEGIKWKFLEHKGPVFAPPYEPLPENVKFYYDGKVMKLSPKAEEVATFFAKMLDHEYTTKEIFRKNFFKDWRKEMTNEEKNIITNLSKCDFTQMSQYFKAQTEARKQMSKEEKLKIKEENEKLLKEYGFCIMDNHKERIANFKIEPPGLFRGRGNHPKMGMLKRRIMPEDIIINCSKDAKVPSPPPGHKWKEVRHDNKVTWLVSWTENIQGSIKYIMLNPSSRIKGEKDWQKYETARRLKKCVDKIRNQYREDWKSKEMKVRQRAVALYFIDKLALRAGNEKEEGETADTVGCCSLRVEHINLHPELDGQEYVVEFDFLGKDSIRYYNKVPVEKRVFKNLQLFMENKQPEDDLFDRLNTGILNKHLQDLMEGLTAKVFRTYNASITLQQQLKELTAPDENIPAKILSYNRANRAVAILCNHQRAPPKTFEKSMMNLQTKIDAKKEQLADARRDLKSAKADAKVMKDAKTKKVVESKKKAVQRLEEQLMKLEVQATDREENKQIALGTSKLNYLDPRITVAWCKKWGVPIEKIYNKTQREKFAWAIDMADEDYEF
Method: Topoisomerase I inhibition assay. A plasmid-based Topo I assay (Cat. No. TG1015-1A, TopoGEN Inc., Buena Vista, CO) was performed according to the manufacturer's instructions. Briefly, 1 μL of the test compounds (PTX, CIP, CIP2b, or CAM) at a concentration of 2 mM, was mixed with 2 μL of the reaction buffer (10× tris-glycine-SDS), and deionized water was added to make 18 μL solution. This was followed by adding 1 μL of supercoiled DNA (SC DNA) and 1 μL of human Topo I (10 U/μL) (drug final concentration was 100 μM). Also, SC DNA±Topo I was used as a control (i.e., not containing drugs). In addition, relaxed DNA was added as another control in this assay. Samples were incubated on a heating block (Isotemp 125 D Digital Heat Block, ThermoFisher Scientific) set at 37° C. for 30 minutes. Then, the reaction was stopped by adding a 5× stop buffer. Samples were then loaded directly into the wells of a 1% agarose gel (Research Products International, Mount Prospect, IL). The gel was run at 150 V until the dye front had traveled approximately 5 cm (run time was approximately 2 hours). The gel was then stained with 1 μg/mL ethidium bromide in deionized water for 15 minutes, and this was followed by de-staining (washing) with deionized water for 30 min before imaging. The image was then taken using an Invitrogen iBright CL 1500 Imaging System (ThermoFisher Scientific). The intensity of the final bands in the gel was quantified using ImageJ, and the results are expressed as the percentage of Topo I inhibition.

[3] = test system: Hec50co tumors; test: In vivo tumor accumulation of PTX-OG after peritumoral SC injection; set-up: species or system athymic Nu/Nu mice; details: 0.1 mg/kg PTX-OG SC peritumoral, 24 h
Method: Effect of drug combination on the in vivo tumor accumulation of PTX In this study, athymic Nu/Nu mice were challenged with 1×10^6 of Hec50co tumor cells per mouse on day zero of the experiment. When the tumor grew to a palpable size range of 100-150 mm^3, as measured by Equation 2, treatments were administered SC at the tumor site (peritumoral). Treatment groups (n=3 per group) included: (i) DPBS treated mice, 0.1 mg/kg PTX-OG, and 0.1 mg/kg PTX-OG+5 mg/kg CIP2b. After 24 hours, mice were euthanized, and tumors were collected and submerged in Hank's Balanced Salt Solution (HBSS) with calcium and magnesium. Tumors were then taken out of HBSS (one at a time to maintain cell viability), placed on a Petri dish, and mechanically minced with a sterile scalpel and forceps into small pieces. Tumor pieces were transferred to 50 mL tubes containing 10 mL of the pre-warmed (37° C.) sterile cell dissociation buffer (HBSS containing 50,000 U of collagenase IV and 100,000 U of DNase I). Samples were incubated at 37° C. under continuous rotation at 300 rpm for 60 minutes in the incubator-shaker. Then, cell suspensions were filtered through a 70 μm cell strainer then a 40 μm cell strainer to remove any aggregates. […] Finally, cell suspensions were acquired using a FACSCalibur flow cytometer, and data were analyzed using FlowJo software.

levels of caspase 3 [1]: high levels of caspase 3 | Topo I inhibitory activity (gel) [2]: neither PTX nor CIP did inhibit Topo I
Compound: CC(=O)O[C@H]1C(=O)[C@@]2(C)[C@H]([C@H](OC(=O)c3ccccc3)[C@]3(O)C[C@H](OC(=O)[C@H](O)[C@@H](NC(=O)c4ccccc4)c4ccccc4)C(C)=C1C3(C)C)[C@]1(OC(C)=O)CO[C@@H]1C[C@@H]2O [PTX, paclitaxel]
in vivo intracellular accumulation of PTX-OG by tumor cells vs untreated control [3]: marginal in vivo intracellular accumulation
